Measurements: patent US20220378923A1, “BET DEGRADER” (KYOWA KIRIN CO., LTD., priority 2019, published 2022)
Read-outs that look alike come from different tables or passages of the source.

System: SU-DHL-4 cells
Test: Inhibitory effect on cell viability in SU-DHL-4 cell line (Test Example 1)
Type: cell-based, human
Settings: SU-DHL-4 cells, 72 hours, Cell Counting Kit-8, concentration showing 90% inhibition of cell viability, read-out: SU-DHL-4 Cell Viability Inhibition Rate IC90
Protocol: SU-DHL-4 cells (Code No. ACC 495, Deutsche Sammlung von Mikroorganismen and Zellkulturen GmbH; DSMZ) were cultured at 37° C. using a carbon dioxide incubator (95% air, 5% CO2) in RPMI1640 medium (Code No. 11875-093, Thermo Fisher Scientific) in which inactivated fetal bovine serum (FBS: Code No. 10099-148, Thermo Fisher Scientific) in an amount to give a final concentration of 10 vol % and penicillin/streptomycin solution (PS: […] The cells were passaged twice a week at a volume of 20-40 mL so as to maintain a cell concentration of 1×10^6 cells/mL or less. […] After seeding, the cells were precultured at 37° C. in a carbon dioxide gas incubator for 18 to 25 hours. […] At this time, the final concentration of DMSO was adjusted to be 0.1 vol %. After adding the test compound, the cells were cultured at 37° C. in a carbon dioxide gas incubator for 72 hours. Next, 0.020 mL of Cell Counting Kit-8 (Code No. CK04, DOJINDO) solution diluted 2-fold or 4-fold with phosphate buffered saline (PBS) was added to each well. Color reaction was carried out in a carbon dioxide gas incubator at 37° C. for 2 to 3 hours, and the absorbance at a wavelength of 450 nm was measured using SpectraMax 340PC (Molecular Devices). […] Absorbance of a well containing test compound • B: Absorbance of a well without addition of cells • C: Absorbance of a well without addition of test compound

| IC90 | IC90 (Homo sapiens) | SMILES |
| --- | --- | --- |
|  | 0.13 nM | CCC(=O)N1c2ccccc2[C@H](Nc2ccc(NC(=O)CNC(=O)Nc3ccc(N[C@@H]4C[C@H](C)N(C(=O)CC)c5ccccc54)cc3)cc2)C[C@@H]1C (relative stereo) [Compound 6j, N-(4-(((2S*,4R*)-2-Methyl-1-propionyl-1,2,3,4-tetrahydroquinolin-4-yl)amino)phenyl)-2-(3-(4-(((2S*,4R*)-2-methyl-1-propionyl-1,2,3,4-tetrahydroquinolin-4-yl)amino)phenyl)ureido)acetamide] |
| 25.9 nM |  | CCC(=O)N1c2ccccc2[C@H](Nc2ccc(NC(=O)CNC(=S)OC3CCC(N[C@@H]4C[C@H](C)N(C(=O)CC)c5ccccc54)CC3)cc2)C[C@@H]1C (relative stereo) [Compound 7d, 0-((1R,4R)-4-(((2S*,4R*)-2-Methyl-1-propionyl-1,2,3,4-tetrahydroquinolin-4-yl)amino)cyclohexyl)(2-((4-(((2S,4R)-2-methyl-1-propionyl-1,2,3,4-tetrahydroquinolin-4-yl)amino)phenyl)amino)-2-oxoethyl)carbamothioate] |
| 20.4 nM |  | CCC(=O)N1c2ccccc2[C@H](Nc2ccc(NC(=O)CNC(=O)O[C@H]3CC[C@H](N[C@@H]4C[C@H](C)N(C(=O)CC)c5ccccc54)CC3)cc2)C[C@@H]1C (relative stereo) [Compound 7e, (1R,4R)-4-(((2S*,4R*)-2-Methyl-1-propionyl-1,2,3,4-tetrahydroquinolin-4-yl)amino)cyclohexyl (2-((4-(((2S,4R)-2-methyl-1-propionyl-1,2,3,4-tetrahydroquinolin-4-yl)amino)phenyl)amino)-2-oxoethyl)carbamate] |
| 0.62 nM |  | CCC(=O)N1c2ccccc2[C@H](Nc2ccc(NC(=O)CNC(=O)C3CCC(N[C@@H]4C[C@H](C)N(C(=O)CC)c5ccccc54)CC3)cc2)C[C@@H]1C (relative stereo) [Compound 7k, (1R,4R)-4-(((2S*,4R*)-2-Methyl-1-propionyl-1,2,3,4-tetrahydroquinolin-4-yl)amino)-N-(2-((4-(((2S,4R)-2-methyl-1-propionyl-1,2,3,4-tetrahydroquinolin-4-yl)amino)phenyl)amino)-2-oxoethyl)cyclohexane-1-carboxamide] |
| 20.3 nM |  | CCC(=O)N1c2ccccc2[C@H](Nc2ccc(C(=O)NCCCNC(=O)C3CCC(N[C@@H]4C[C@H](C)N(C(=O)CC)c5ccccc54)CC3)cc2)C[C@@H]1C (relative stereo) [Compound 7m, 4-(((2S,4R)-2-Methyl-1-propionyl-1,2,3,4-tetrahydroquinolin-4-yl)amino)-N-(3-((1R,4r)-4-(((2S*,4R*)-2-methyl-1-propionyl-1,2,3,4-tetrahydroquinolin-4-yl)amino)cyclohexane-1-carboxamide)propyl)benzamide] |
| 13.9 nM |  | CCC(=O)N1c2ccccc2[C@H](Nc2ccc(C(=O)NC3CN(C(=O)C4CCC(N[C@@H]5C[C@H](C)N(C(=O)CC)c6ccccc65)CC4)C3)cc2)C[C@@H]1C (relative stereo) [Compound 7n, 4-(((2S,4R)-2-Methyl-1-propionyl-1,2,3,4-tetrahydroquinolin-4-yl)amino)-N-(1-((1R,4R)-4-(((2S*,4R*)-2-methyl-1-propionyl-1,2,3,4-tetrahydroquinolin-4-yl)amino)cyclohexane-1-carbonyl)azetidin-3-yl)benzamide] |

The next lines start with the compound.

| SMILES | IC90 | IC90 (Homo sapiens) |
| --- | --- | --- |
| CCC(=O)N1c2ccccc2[C@H](Nc2ccc(C(=O)NCCCNC(=O)c3ccc(C(O)c4cc(O)cc(-c5c(C)noc5C)c4)cc3)cc2)C[C@@H]1C (relative stereo) [Compound 1d, 4-{[3-(3,5-Dimethylisoxazol-4-yl)-5-hydroxyphenyl](hydroxy)methyl}-N-[3-(4-{[(2S*,4R*)-2-methyl-1-propionyl-1,2,3,4-tetrahydroquinolin-4-yl]amino}benzamide)propyl]benzamide] | 38 nM |  |
| CCC(=O)N1c2ccccc2[C@H](Nc2ccc(C(=O)NCCCNC(=O)c3ccc(Cn4c(CC)cc5c4CCCC5=O)cc3)cc2)C[C@@H]1C (relative stereo) [Compound 1e, 4-[(2-Ethyl-4-oxo-4,5,6,7-tetrahydro-1H-indol-1-yl)methyl]-N-[3-(4-{[(2S*,4R*)-2-methyl-1-propionyl-1,2,3,4-tetrahydroquinolin-4-yl]amino}benzamide)propyl]benzamide] | 39.8 nM |  |
| CCC(=O)N1c2ccccc2[C@H](Nc2ccc(C(=O)NCCCNC(=O)c3ccc(C4=NCc5nnc(C)n5-c5sc(C)c(C)c54)cc3)cc2)C[C@@H]1C (relative stereo) [Compound 1f, 4-{[(2S*,4R*)-2-Methyl-1-propionyl-1,2,3,4-tetrahydroquinolin-4-yl]amino}-N-{3-[4-(2,3,9-trimethyl-6H-thieno[3,2-f][1,2,4]triazolo[4,3-a][1,4]diazepin-4-yl)benzamide]propyl}benzamide] | 4.78 nM |  |
| CCC(=O)N1c2ccccc2[C@H](Nc2ccc(NC(=O)c3cccc(NC(=O)c4ccc(N[C@@H]5C[C@H](C)N(C(=O)CC)c6ccccc65)cc4)c3)cc2)C[C@@H]1C (relative stereo) [Compound 2j, 3-(4-{[(2S,4R)-2-Methyl-1-propionyl-1,2,3,4-tetrahydroquinolin-4-yl]amino}benzamide)-N-(4-{[(2S*,4R*)-2-methyl-1-propionyl-1,2,3,4-tetrahydroquinolin-4-yl]amino}phenyl)benzamide] | 0.36 nM |  |
| CCC(=O)N1c2ccccc2[C@H](Nc2ccc(-c3cn4c(n3)CN(C(=O)C3CCC(N[C@@H]5C[C@H](C)N(C(=O)CC)c6ccccc65)CC3)CC4)cc2)C[C@@H]1C (relative stereo) [Compound 7b, 1-((2S*,4R*)-2-Methyl-4-(((1R,4r)-4-(2-(4-(((2S,4R)-2-methyl-1-propionyl-1,2,3,4-tetrahydroquinolin-4-yl)amino)phenyl)-5,6,7,8-tetrahydroimidazo[1,2-a]pyrazine-7-carbonyl)cyclohexyl)amino)-3,4-dihydroquinolin-1(2H)-yl)propan-1-one] | 1.51 nM |  |
| CCC(=O)N1c2ccccc2[C@H](Nc2ccc(C(=O)c3cnc4n3CCN(C(=O)C3CCC(N[C@@H]5C[C@H](C)N(C(=O)CC)c6ccccc65)CC3)C4)cc2)C[C@@H]1C (relative stereo) [Compound 7i, 1-((2S*,4R*)-2-Methyl-4-(((1r,4R)-4-(3-(4-(((2S,4R)-2-methyl-1-propionyl-1,2,3,4-tetrahydroquinolin-4-yl)amino)benzoyl)-5,6,7,8-tetrahydroimidazo[1,2-a]pyrazine-7-carbonyl)cyclohexyl)amino)-3,4-dihydroquinolin-1(2H)-yl)propan-1-one] | 0.33 nM |  |
| CCC(=O)N1c2ccccc2[C@H](Nc2ccc(Cc3cnc4n3CCN(C(=O)C3CCC(N[C@@H]5C[C@H](C)N(C(=O)CC)c6ccccc65)CC3)C4)cc2)C[C@@H]1C (relative stereo) [Compound 7l, 1-((2S*,4R*)-2-Methyl-4-(((1r,4R)-4-(3-(4-(((2S,4R)-2-methyl-1-propionyl-1,2,3,4-tetrahydroquinolin-4-yl)amino)benzyl)-5,6,7,8-tetrahydroimidazo[1,2-a]pyrazine-7-carbonyl)cyclohexyl)amino)-3,4-dihydroquinolin-1(2H)-yl)propan-1-one] | 0.28 nM |  |
